Assay results reported in publication PMC5348404, “Systematic approach identifies RHOA as a potential biomarker therapeutic target for Asian gastric cancer” (Oncotarget, 2016).

Target: T1, RHOA (Homo sapiens, UniProt P61586)
T1 construct: commercial RHOA protein (Sigma-Aldrich SRP5127), immobilized on CMDH gold chip
Experiment: surface plasmon resonance, immobilized RHOA (Reichert SR7500DC)
Format: binding

T1 sequence (P61586 whole entry): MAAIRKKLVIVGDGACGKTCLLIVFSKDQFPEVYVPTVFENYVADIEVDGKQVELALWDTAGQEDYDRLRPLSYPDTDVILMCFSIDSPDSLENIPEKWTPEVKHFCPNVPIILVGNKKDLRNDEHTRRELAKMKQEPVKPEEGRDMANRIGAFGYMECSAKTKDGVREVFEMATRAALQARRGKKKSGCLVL

Kd [µM]	Compound
67 ± 3	O=S(=O)(N/N=C/c1ccc2c(c1)OCO2)c1ccccc1 [JK-121]
6.9 ± 0.4	O=C(N/N=C/c1ccc2c(c1)OCO2)c1ccccc1 [JK-122]
16.3 ± 0.4	O=C(N/N=C/c1ccc2c(c1)OCO2)c1ccncc1 [JK-123]
44 ± 2	O=C(N/N=C/c1ccc2c(c1)OCO2)c1ccc(O)cc1 [JK-124]
8.7 ± 6	CC(=O)N/N=C/c1ccc2c(c1)OCO2 [JK-125]
